This note sets out measurements from patent publication US20130156845A1, “LIPID FORMULATED SINGLE STRANDED RNA” (ALNYLAM PHARMACEUTICALS, INC., priority 2010, published 2013).

Read-outs that look alike come from different tables or passages of the source. Strand notation (5' to 3'): a small letter for the sugar, then the base; units joined by * are phosphorothioate-linked, units joined directly phosphodiester-linked; [ ] holds rarer units or linkages, { } end groups; capitals alone tell only the bases. [DMAEAc-N] = nucleoside with 2'-O-dimethylaminoethyl acetamide (DMAEAc) sugar (N: the base); [R5Me] = (R)-5'-methyl-2'-deoxythymidine; e = 2'-O-(2-methoxyethyl) (MOE); m = 2'-O-methyl; {P} = phosphate; f = 2'-fluoro

Series [1] is described as follows: Modified ssRNA 5′-phosphate serum stability assay (Example 60). Particulars: full length ssRNA with 5′-terminal phosphate; 10 μM in 95% fresh mouse serum, 37° C., LC/MS. It counts as in vitro ADME. An excerpt:
A serum stability assay is useful for evaluating the stability of oligomeric compounds in the presences of nucleases and other enzymes found in serum. For example, the stability of a 5′-terminal phosphate group of an oligomeric compound can be evaluated by assessing the ability of the 5′-terminal phosphate group to remain attached to the oligomeric compound in the presence of serum. Accordingly, a serum stability assay was employed to evaluate the stability of modified ssRNAs having a 5′-terminal phosphate group.
Various modified ssRNAs, shown below, having a 5′-terminal phosphate group (10 μM) were dissolved in 95% of fresh mouse serum and incubated at 37° C. Aliquots of serum (100 μL) were removed after 0, 1, 3, 6 or 24 hours of incubation times. The serum samples were immediately quenched and snap frozen. The samples were extracted by the strong anion exchange (SAX) and octadecylsilyl (C-18) columns. For each incubation time, the amount of full length modified ssRNA having a 5′-terminal phosphate group was determined by LC/MS, and the half-life of the full length modified ssRNA having a 5′ terminal phosphate group was calculated. The results are expressed as half-time (T1/2) in the table below.

The subject of series [2] is human PTEN. The series can be described thus: PTEN expression in HeLa cells, ssRNAs vs siRNAs (Example 62). It counts as cell-based. On the procedure:
A series of 5′ and 2′ bis-substituted modified oligomeric compounds were prepared as single strand RNAs (ssRNAs). The antisense (AS) strands listed below were designed to target human PTEN, and each was also assayed as part of a duplex with the same sense strand (ISIS 341401, shown below) for their ability to reduce PTEN expression levels. HeLa cells were treated with the single stranded or double stranded oligomeric compounds created with the antisense compounds shown below using methods described herein. The IC50's were calculated using the linear regression equation generated by plotting the normalized mRNA levels to the log of the concentrations used.

The nature of series [3]: Phosphate stability in mouse serum (Example 68).
Protocol: Single-stranded oligomeric compounds were tested for stability in mouse serum.
In series [4] the test system is PTEN. The series can be described thus: PTEN mRNA reduction in HeLa cells, dose response (Example 69). Particulars: percent inhibition of PTEN mRNA, 0.067-50 nM. Format: cell-based, human. On the procedure:
In accordance with the present disclosure, oligomeric compounds were synthesized and tested for their ability to reduce PTEN expression over a range of doses. Human HeLa cells were treated with either ISIS 447581, 467074, 418046 or 467076. A dose comparison was evaluated with dose concentrations of 0.067, 0.2, 0.62, 1.9, 5.5, 16.7 and 50 nM using methods described herein. Expression levels of PTEN were determined using real-time PCR and normalized to RIBOGREEN™ using methods described herein. The percent inhibition of PTEN mRNA was determined and the resulting dose-response curves were used to determine the EC50. The EC50s are listed below.

Series [5] in a line: In vivo stability: tissue level of intact compound (Example 71).
Protocol: The in vivo stability of the three oligomeric compounds in Example 70 was evaluated. The tissue samples were obtained from the animals in which PTEN was assessed. […] Quantitative analysis of the oligonucleotides standard were performed by extracted ion chromatograms in the most abundant charge state (−4) using Chemstation software.
The subject of series [6] is PTEN. The series can be described thus: In vivo evaluation of ssRNA formulated in lipid particle LNP06, liver PTEN mRNA (Example 77). Details: species or system mouse. To be noted: ssRNA formulated in LNP06, 4.5 mg/kg tail vein, C57BL/6 mice, liver PTEN mRNA normalized to GAPDH, 2 days post injection. The method, then:
In accordance with the present disclosure, oligomeric compounds were synthesized and tested for their ability to reduce PTEN. C57BL/6 mice (Charles River Labs, MA) received either saline or LNP formulated single stranded RNA via tail vein injection at a volume of 0.01 mL/g and the single stranded RNA dose is 4.5 mg/kg. 25 groups of female mice and 9 modified ssRNAs targeting PTEN were formulated in LNP06 and tested. To determine liver mRNA levels of PTEN, 2 days post injection, animals were sacrificed and livers were harvested and snap frozen in liquid nitrogen. Liver lysates were prepared from the frozen tissues and liver mRNA levels of PTEN normalized to GAPDH were quantified using a branched DNA assay (QuantiGene Assay, Panomics, Calif.).

Series [7] relates to PTEN. Put plainly: Liver PTEN mRNA in Balb/c mice, unformulated oligomeric compounds (Example 70). It counts as in vivo, mouse. To be noted: 48 h; for inhibition of PTEN: 75 mg/kg, liver; for % inhibition: liver PTEN mRNA, single i.p. dose 75 mg/kg, normalized to saline control. The method, then:
Six-week-old male Balb/c mice (Jackson Laboratory, Bar Harbor, Me.) were injected intraperitenially with a single dose of 75 mg/kg of one of the three oligomeric compounds above or with saline control. Each dose group consisted of four animals. The mice were sacrificed 48 hours following administration. Livers were collected and PTEN mRNA levels were assessed using real-time PCR and RIBOGREEN® RNA quantification reagent (Molecular Probes, Inc. Eugene, Oreg.) according to standard protocols. PTEN mRNA levels were determined relative to total RNA (using Ribogreen), and normalized to the saline-treated control. Results are listed below as the average % inhibition of PTEN mRNA expression for each treatment group, normalized to saline-injected control.

For series [8], the system named is A549 cells. Put plainly: MicroRNA mimics: cell cycle assay. It counts as cell-based. To be noted: RNAIMAX transfection, 0.1-100 nM, nocodazole, propidium iodide flow cytometry. The method, then: A cell cycle assay was used to evaluate the activity of microRNA mimics. A549 cells were plated at a density of approximately 45,000 cells per well of a 24-well plate. The following day, cells were transfected with microRNA mimics and control oligomeric compounds, using RNAIMAX as the transfection reagent. Oligomeric compounds were tested at concentrations ranging from 0.1 nM to 100 nM. Control oligomeric compounds were also tested. Approximately 24 hours following transfection, nocodazole was added to the cells at a concentration ranging from 0.5 to 2.0 μg/ml. Approximately 16 hours later, the cells were harvested, washed, ethanol-fixed and stained with propidium iodide. Cells cycle profiles were generated by subjecting the stained cells to flow cytometry (FACSCAN).
For orientation: A flow cytometer gives signals particle by particle.

Where [9] appears, read: antisense strand duplexed with sense strand ISIS 341401, PTEN mRNA, read-out: EC50 (nM) siRNA.
Where [10] appears, read: single stranded antisense compound, PTEN mRNA, read-out: EC50 (nM) ssRNA.
Setting [11] is: full compound with intact phosphorous moiety, first table.
Setting [12] is: Dose @ 75 mg/kg (48 h time point).

As a reminder, the EC50 is the midpoint of the concentration-response curve. As a reminder, the % inhibition is the drop in the measured response relative to a control, in per cent. The low end stands for little suppression, the high end for strong suppression.

As to “P-TRUfGfUfCfUfCfUfGfGfUfCfCfUfUfAfCfUfUfAeAe (antisense TUGUCUCUGGUCCUUACUUAA; sugars from the 5' end [R5Me]1 f18 e2, 5' {P}, backbone not given here) [ISIS 432356]”, the “T1/2” value in series [1] was determined as 8.7 h. Moreover, the half-maximal effective concentration (EC50) was found to be 0.7 nM in series [2] (setting [9]) and 3 nM in series [2] (setting [10]). Further, the T1/2 full length in series [3] (setting [11]) worked out at 8.7 h.

As to “P-TScUfGmUfCmUfCmUfGmGfUmCfCmUfUmAfCmUfUmAeAe (antisense TUGUCUCUGGUCCUUACUUAA; 5'-phosphate, 2'-F/2'-OMe, MOE modifications, chemistry not fully specified) [ISIS 467074, modified ssRNA targeting PTEN]”, the EC50 is 2.5 nM in series [4], 0.1 nM in series [2] (setting [9]) and 2.5 nM in series [2] (setting [10]). For the same substance, the “compound lacking the 5′-phosphate in tissue” value in series [5] (75 mg/kg, 48 h) is “detected”. Besides, in series [5] (75 mg/kg, 48 h), the “level of intact compound in tissue” value is listed as “not detected”. Moreover, in series [5] (setting [12]), the “Tissue Level of intact compound (μg/g)” value was “none detected”. The “% Kd” value in series [6] came to 52%. In addition, in series [7], the “inhibition of PTEN” value is “lowest amount of PTEN reduction”. Further, the “% inhibition” value in series [7] worked out at 11%.

Take “P-TdUfGfUfCfUfCfUfGfGfUfCfCfUfUfAfCfUfUfAeAe (antisense {P}-[DMAEAc-T]fUfGfUfCfUfCfUfGfGfUfCfCfU*fU*fA*fC*fU*fU*eA*eA) [ISIS 422391]”: the “T1/2” value in series [1] is 6.5 h. In addition, the values for the EC50 in series [2] (setting [9]) and in series [2] (setting [10]) were 0.5 nM and 5 nM, respectively. Besides, the T1/2 full length worked out at 3.7 h in series [3] (four compounds tested separately, second table) and 6.5 h in series [3] (setting [11]).

In the case of “P-USfUfGfUfCfUfCfUfGfGfUfCfCfUfUfAfCfUfUf (antisense UUGUCUCUGGUCCUUACUU; 5'-phosphate, 2'-F, phosphorothioate, chemistry not fully specified) [ISIS 398701, modified ssRNA targeting PTEN]”, the “T1/2” value in series [1] amounted to 18.2 h.

On to “P-UmAfGfCfAfGfCfAfCmGmUfAfAmAmUfAfUfUfGfGmCmGmAeAe [ss miR-16]”, for which, in series [8], the cell cycle phenotype result is given as “blocking cells in the G1 phase of the cell cycle”.

Regarding “P-UmUfGmUfCmUfCmUfGmGfUmCfCmUfUmAfCmUfUmAeAe (antisense UUGUCUCUGGUCCUUACUUAA; sugars from the 5' end mfmfmfmfmfmfmfmfmfmee, 5' {P}, backbone not given here) [ISIS 418046, modified ssRNA targeting PTEN]”, the values for the EC50 in series [4], in series [2] (setting [9]) and in series [2] (setting [10]) were 0.83 nM, 0.2 nM and 2 nM, respectively.

With “Py-^meUmUfGmUfCmUfCmUfGmGfUmCfCmUfUmAfCmUfUmAeAe (antisense UUGUCUCUGGUCCUUACUUAA; 5'-methylenephosphonate, 2'-F/2'-OMe, MOE, chemistry not fully specified) [ISIS 467076, modified ssRNA targeting PTEN, 5′-methylenephosphonate]”, the EC50 in series [4] was 6 nM; in series [2] (setting [9]) it was 0.05 nM; in series [2] (setting [10]) it was 6 nM. In addition, the “level of intact compound in tissue” value in series [5] (75 mg/kg, 48 h) is on record as “present at a lower concentration”. In addition, the “Tissue Level of intact compound” value in series [5] (setting [12]) came to 22.5 µg/g. Moreover, the “% Kd” value in series [6] came to 34%. In addition, the “inhibition of PTEN” value in series [7] is on record as “smaller inhibition of PTEN”. Further, the “% inhibition” value in series [7] turned out to be 16%.

“ds miR-16: double-stranded miR-16 mimic: UAGCAGCACGUAAAUAUUGGCG (SEQ 21) with AAAGCGUCGUGCAUUUAUAACC (SEQ 22) (chain 2 CCAAUAUUUACGUGCUGCGAAA; listed as RNA, chemistry not given here) [reference compound]”: the cell cycle phenotype result in series [8] was “blocked cells in the G1 phase of the cell cycle”.
